According to PubChem BioAssay AID1259407 (Chemical Carcinogenesis Research Information System (CCRIS), 2018):
Active and inactive are the calls of the source. How the calls were made is not given here.

System: CCRIS mutagenicity, Ames/micronucleus/aberration tests
Experiment: CCRIS mutagenicity studies
[1] = Test System: AMES SALMONELLA TYPHIMURIUM, Strain/Indicator: TA97, Metabolic Activation: NONE, Method: STANDARD PLATE
[2] = Test System: AMES SALMONELLA TYPHIMURIUM, Strain/Indicator: TA98, Metabolic Activation: NONE, Method: STANDARD PLATE
[3] = Test System: AMES SALMONELLA TYPHIMURIUM, Strain/Indicator: TA100, Metabolic Activation: NONE, Method: STANDARD PLATE
[4] = Test System: AMES SALMONELLA TYPHIMURIUM, Strain/Indicator: TA102, Metabolic Activation: NONE, Method: STANDARD PLATE
[5] = Test System: AMES SALMONELLA TYPHIMURIUM, Strain/Indicator: TA98, Metabolic Activation: RAT, LIVER, S-9, AROCLOR 1254, Method: STANDARD PLATE
[6] = Test System: AMES SALMONELLA TYPHIMURIUM, Strain/Indicator: TA100, Metabolic Activation: RAT, LIVER, S-9, AROCLOR 1254, Method: STANDARD PLATE

Structure (SMILES): c1ccc(CSSCc2ccccc2)cc1
- mutagenic call [1]: inactive; negative
- mutagenic call (Test System: AMES SALMONELLA TYPHIMURIUM, Strain/Indicator: TA97, Metabolic Activation: S-9, Method: STANDARD PLATE): inactive; negative
- mutagenic call [2]: inactive; negative
- mutagenic call (Test System: AMES SALMONELLA TYPHIMURIUM, Strain/Indicator: TA98, Metabolic Activation: S-9, Method: STANDARD PLATE): inactive; negative
- mutagenic call [3]: inactive; negative
- mutagenic call (Test System: AMES SALMONELLA TYPHIMURIUM, Strain/Indicator: TA100, Metabolic Activation: S-9, Method: STANDARD PLATE): inactive; negative
- mutagenic call [4]: active; positive
- mutagenic call (Test System: AMES SALMONELLA TYPHIMURIUM, Strain/Indicator: TA102, Metabolic Activation: S-9, Method: STANDARD PLATE): active; positive

Structure (SMILES): C[C@@H]1O[C@@H](O[C@H]2[C@H](O[C@H]3[C@H](O[C@H]4CC[C@@]5(C)[C@@H](CC[C@]6(C)[C@@H]5CC=C5[C@@H]7CC(C)(C)C[C@@H](O)[C@]7(C)CC[C@]56C)[C@@]4(C)CO)O[C@H](C(=O)O)[C@@H](O)[C@@H]3O)O[C@H](CO)[C@H](O)[C@@H]2O)[C@H](O)[C@H](O)[C@H]1O
- mutagenic call [1]: inactive; negative
- mutagenic call (Test System: AMES SALMONELLA TYPHIMURIUM, Strain/Indicator: TA97, Metabolic Activation: RAT, LIVER, S-9, AROCLOR 1254, Method: STANDARD PLATE): inactive; negative
- mutagenic call [2]: inactive; negative
- mutagenic call [5]: inactive; negative
- mutagenic call [3]: inactive; negative
- mutagenic call [6]: inactive; negative
- mutagenic call [4]: inactive; negative
- mutagenic call (Test System: AMES SALMONELLA TYPHIMURIUM, Strain/Indicator: TA102, Metabolic Activation: RAT, LIVER, S-9, AROCLOR 1254, Method: STANDARD PLATE): inactive; negative

Structure (SMILES): CC(=O)OC(C(C)=O)N(C)N=O (stereo not drawn)
- mutagenic call (Test System: AMES SALMONELLA TYPHIMURIUM, Strain/Indicator: TA1535, Metabolic Activation: NONE, Method: PREINCUBATION): active; positive

Structure (SMILES): CC(=O)n1ncc(Cl)c(Cl)c1=O
- mutagenic call [2]: inactive; negative
- mutagenic call [5]: inactive; negative
- mutagenic call [3]: inactive; negative
- mutagenic call [6]: inactive; negative
- mutagenic call (Test System: AMES SALMONELLA TYPHIMURIUM, Strain/Indicator: TA1535, Metabolic Activation: NONE, Method: STANDARD PLATE): inactive; negative
- mutagenic call (Test System: AMES SALMONELLA TYPHIMURIUM, Strain/Indicator: TA1535, Metabolic Activation: RAT, LIVER, S-9, AROCLOR 1254, Method: STANDARD PLATE): inactive; negative
- mutagenic call (Test System: AMES SALMONELLA TYPHIMURIUM, Strain/Indicator: TA1537, Metabolic Activation: NONE, Method: STANDARD PLATE): inactive; negative
- mutagenic call (Test System: AMES SALMONELLA TYPHIMURIUM, Strain/Indicator: TA1537, Metabolic Activation: RAT, LIVER, S-9, AROCLOR 1254, Method: STANDARD PLATE): inactive; negative

Structure (SMILES): CC(=O)Nc1ccc(-c2ccc(NC(C)=O)cc2)cc1
- mutagenic call (Test System: AMES SALMONELLA TYPHIMURIUM, Strain/Indicator: TA1538, Metabolic Activation: GUINEA PIG, LIVER, HEPATOCYTES, Method: PREINCUBATION): active; positive
- mutagenic call (Test System: AMES SALMONELLA TYPHIMURIUM, Strain/Indicator: TA1538, Metabolic Activation: GUINEA PIG, LIVER, S-9, ACETYL-COA (0.1 OR 1 MILLIMOLAR), Method: PREINCUBATION): active; positive
- mutagenic call (Test System: AMES SALMONELLA TYPHIMURIUM, Strain/Indicator: TA1538, Metabolic Activation: GUINEA PIG, LIVER, S-9, Method: PREINCUBATION): active; positive
- mutagenic call (Test System: AMES SALMONELLA TYPHIMURIUM, Strain/Indicator: TA1538, Metabolic Activation: HAMSTER, LIVER, HEPATOCYTES, Method: PREINCUBATION): active; positive
- mutagenic call (Test System: AMES SALMONELLA TYPHIMURIUM, Strain/Indicator: TA1538, Metabolic Activation: HAMSTER, LIVER, S-9, ACETYL-COA (0.1 OR 1 MILLIMOLAR), Method: PREINCUBATION): active; positive
- mutagenic call (Test System: AMES SALMONELLA TYPHIMURIUM, Strain/Indicator: TA1538, Metabolic Activation: HAMSTER, LIVER, S-9, Method: PREINCUBATION): active; positive
- mutagenic call (Test System: AMES SALMONELLA TYPHIMURIUM, Strain/Indicator: TA1538, Metabolic Activation: RAT, LIVER, HEPATOCYTES, Method: PREINCUBATION): active; positive
- mutagenic call (Test System: AMES SALMONELLA TYPHIMURIUM, Strain/Indicator: TA1538, Metabolic Activation: RAT, LIVER, S-9, ACETYL-COA (0.1 OR 1 MILLIMOLAR), Method: PREINCUBATION): active; positive
- mutagenic call (Test System: AMES SALMONELLA TYPHIMURIUM, Strain/Indicator: TA1538, Metabolic Activation: RAT, LIVER, S-9, Method: PREINCUBATION): active; positive
- mutagenic call (Test System: Ames Salmonella typhimurium, Strain/Indicator: TA102, Metabolic Activation: None, Method: Preincubation): inactive; negative
- mutagenic call (Test System: Ames Salmonella typhimurium, Strain/Indicator: TA102, Metabolic Activation: Rat, liver, S-9, Aroclor 1254, 4%, Method: Preincubation): inactive; negative

Structure (SMILES): CC1(C)CC2=C(C=O)[C@]3(C=O)C[C@]3(C)[C@@H](O)[C@@H]2C1
- mutagenic call [2]: inactive; negative
- mutagenic call [3]: inactive; negative
- mutagenic call (Test System: AMES SALMONELLA TYPHIMURIUM, Strain/Indicator: TA2637, Metabolic Activation: NONE, Method: STANDARD PLATE): inactive; negative

Structure (SMILES): O[C@@H]1[C@H]2O[C@H]2c2c(ccc3nc4ccc5ccccc5c4cc23)[C@H]1O
- mutagenic call [2]: active; positive
- mutagenic call (Test System: AMES SALMONELLA TYPHIMURIUM, Strain/Indicator: TA100, Metabolic Activation: GUINEA PIG, LIVER, S-9, 3-METHYLCHOLANTHRENE, Method: STANDARD PLATE): active; positive
- mutagenic call [3]: active; positive
- mutagenic call (Test System: CHINESE HAMSTER V-79, Strain/Indicator: V-79/6-THIOGUANINE, Metabolic Activation: NONE): active; positive

Structure (SMILES): Oc1cc(Cl)ccc1Oc1ccc(Cl)cc1Cl
- mutagenic call (End Point: In vitro chromosomal aberrations, Test System: Chinese hamster ovary strain K1-BH4 cells, Metabolic Activation: None): inactive; negative
- mutagenic call (End Point: In vitro chromosomal aberrations, Test System: Chinese hamster ovary strain K1-BH4 cells, Metabolic Activation: S-9): inactive; negative
- mutagenic call (End Point: In vivo chromosomal aberrations, Test System: Bone marrow, Species: Rat, Strain/Sex: Wistar/Female, Route: Gavage): inactive; negative
- mutagenic call (End Point: In vivo chromosomal aberrations, Test System: Bone marrow, Species: Rat, Strain/Sex: Wistar/Male, Route: Gavage): inactive; negative
- mutagenic call (End Point: In vivo micronucleus, Test System: Bone marrow, Species: Mouse, Strain/Sex: CD-1 SPF Swiss albino, Route: Gavage): inactive; negative
- mutagenic call (Test System: Ames Salmonella typhimurium, Strain/Indicator: TA98, Metabolic Activation: None, Method: Preincubation): inactive; negative
- mutagenic call (Test System: Ames Salmonella typhimurium, Strain/Indicator: TA98, Metabolic Activation: None, Method: Standard Plate): inactive; negative
- mutagenic call (Test System: Ames Salmonella typhimurium, Strain/Indicator: TA98, Metabolic Activation: S-9, Method: Preincubation): inactive; negative
- mutagenic call (Test System: Ames Salmonella typhimurium, Strain/Indicator: TA98, Metabolic Activation: S-9, Method: Standard Plate): inactive; negative
- mutagenic call (Test System: Ames Salmonella typhimurium, Strain/Indicator: TA100, Metabolic Activation: None, Method: Preincubation): inactive; negative
- mutagenic call (Test System: Ames Salmonella typhimurium, Strain/Indicator: TA100, Metabolic Activation: None, Method: Standard Plate): inactive; negative
- mutagenic call (Test System: Ames Salmonella typhimurium, Strain/Indicator: TA100, Metabolic Activation: S-9, Method: Preincubation): inactive; negative
- mutagenic call (Test System: Ames Salmonella typhimurium, Strain/Indicator: TA100, Metabolic Activation: S-9, Method: Standard Plate): inactive; negative
- mutagenic call (Test System: Ames Salmonella typhimurium, Strain/Indicator: TA 1535, Metabolic Activation: None, Method: Preincubation): inactive; negative
- mutagenic call (Test System: Ames Salmonella typhimurium, Strain/Indicator: TA 1535, Metabolic Activation: None, Method: Standard Plate): inactive; negative
- mutagenic call (Test System: Ames Salmonella typhimurium, Strain/Indicator: TA 1535, Metabolic Activation: S-9, Method: Preincubation): inactive; negative
- mutagenic call (Test System: Ames Salmonella typhimurium, Strain/Indicator: TA 1535, Metabolic Activation: S-9, Method: Standard Plate): inactive; negative
- mutagenic call (Test System: Ames Salmonella typhimurium, Strain/Indicator: TA1537, Metabolic Activation: None, Method: Preincubation): inactive; negative
- mutagenic call (Test System: Ames Salmonella typhimurium, Strain/Indicator: TA1537, Metabolic Activation: None, Method: Standard Plate): inactive; negative
- mutagenic call (Test System: Ames Salmonella typhimurium, Strain/Indicator: TA1537, Metabolic Activation: S-9, Method: Preincubation): inactive; negative
- mutagenic call (Test System: Ames Salmonella typhimurium, Strain/Indicator: TA1537, Metabolic Activation: S-9, Method: Standard Plate): inactive; negative
- mutagenic call (Test System: Ames Salmonella typhimurium, Strain/Indicator: TA1538, Metabolic Activation: None, Method: Standard Plate): inactive; negative
- mutagenic call (Test System: Ames Salmonella typhimurium, Strain/Indicator: TA1538, Metabolic Activation: S-9, Method: Standard Plate): inactive; negative

Structure (SMILES): OCCN(CCO)c1ccc2ccccc2c1
- mutagenic call [3]: inactive; negative
- mutagenic call (Test System: AMES SALMONELLA TYPHIMURIUM, Strain/Indicator: TA100, Metabolic Activation: RAT, LIVER, S-9, AROCLOR (10%), Method: STANDARD PLATE): active; positive
